Measured values from publication PMC11742250, “Study on the absorption characteristics of euscaphic acid and tiliroside in fruits of Rosa laxa Retz” (PeerJ, 2025).

Columns and labels:
Assay type in all cases: in vitro ADME, human
[1] = tested on: Caco-2 cells; test: in vitro; details: for P-gp substrate status / absorption category from Papp / transport mechanism: Caco-2; for Papp / RB→A/A→B ratios, range over all conditions / RB→A/A→B: Caco-2, 180 min
Protocol: (§1) A precise amount of FRLE reserve solution is diluted to concentrations of 50, 100, and 150 μg/mL, representing the low, medium, and high concentrations of FRLE. Additionally, solutions are prepared containing 0.100 μmoL/mL Verapamil (Ver), 0.099 μmoL/mL Cyclosporine A (CsA), and 0.025 μmoL/mL EGTA at low, medium, and high concentrations for bidirectional transport.
(§2) Caco-2 cells are seeded at a density of 2.5 × 10^5 cells/mL, with 0.5 mL inoculated into each well of a Transwell® 12-well plate. After continuous culturing for 18 days, the cell model is established. Bidirectional transport experiments include AP→BL ([…], absorption transport) and BL→AP ([…], secretion transport).
(§3) Taking absorption transport as an example: 0.5 mL of drug-containing Hank’s Balanced Salt Solution (HBSS) solution is added to the apical (AP) side (supply side), while 1.5 mL of blank solution is added to the basolateral (BL) side (receiving side). At time points 15, 30, 60, 90, 120, 150, and 180 min, 200 µL is drawn from the BL side and simultaneously supplemented with 200 µL of HBSS buffer. The samples are then evaporated in a water bath, re-dissolved in methanol, and centrifuged at 12,000 rpm for 10 min. The supernatant is taken and assayed under the conditions described in “Establishment of the determination method for euscaphic acid and tiliroside”. The effects of different times, concentrations, inhibitors, chelating agents, and pH values on the absorption characteristics of euscaphic acid and tiliroside in FRLE are investigated. The secretion transport procedure is identical to the absorption transport ([Artursson & Karlsson, 1991]).
(§4) The side with the added blank solution is considered the receiving side, and the amount of drug in the receiving side is regarded as its absorption amount (Qr). In the A→B transport test, the amount of drug absorbed by the B-side chamber at any time point is denoted as (QrBi). In the B→A transport test, the amount of drug absorbed by the A-side chamber at any time point is (QrAi). The specific calculations are provided in the following formulas:
(§5) A-B transport: QrBi = 0.2 × (Cr1 + Cr2 + Λ + Cr(i-1)) + 1.5 × Cri
(§6) B-A transport: Qrdi = 0.2 × (Cr1 + Cr2 + Λ + Cr(i-1)) + 0.5 × Cdi
(§7) In the formula, 1.5 represents the volume of the test solution added to the B-side chamber (mL), 0.5 represents the volume of the test solution added to the A-side chamber (mL), and 0.2 is the volume of each sample taken (mL). Cri is the actual concentration in the receiving chamber at the i-th time point (μg/mL). The apparent permeability coefficient Papp (cm/s) is calculated using the following formula ([Lu et al., 2020]):
(§8) Papp=dQ/dt×1/A×C0 dQ/dt represents the amount of drug transported per unit of time (μg/s); A is the surface area of the 12-well Transwell® membrane (1.12 cm^2), and C0 is the initial concentration of the drug in the donor side ([…]) ([Qu et al., 2021]).
(§9) Exhaust ratio (RB-A/A-B)) is calculated using the following formula: RB−A/A−B=Papp(B−A)/Papp(A−B)

[2] = tested on: P-gp; test: in vitro; details: human; for efflux ratio at 180 min, 50 μg/mL / efflux ratio at 180 min, 100 μg/mL / efflux ratio at 180 min, 150 μg/mL: Caco-2, RB→A/A→B
Protocol: as §1, §2, §3, §4, §5, §6, §7, §8, §9

[3] = in vitro; details: human; for Papp at 180 min: Caco-2
Protocol: as §1, §2, §3, §4, §5, §6, §7, §8, §9

[4] = tested on: Caco-2 cells; test: Evaluation of the Caco-2 cell model with fluorescein sodium as marker (Papp, monolayer integrity); details: Caco-2 monolayer, four repeated measurements
Protocol: The evaluation of the Caco-2 cell model primarily involves using fluorescein sodium as a marker. The cells are seeded in a 12-well cell plate (10^5 cells/well) and observed and photographed every two days under a fluorescence inverted microscope. The transepithelial electrical resistance (TEER) is measured using a resistance meter (Millipore Millicell ERS-2; Millipore Sigma, Darmstadt, Germany). […] Markers used for detection mainly include mannitol, inulin, and fluorescein sodium.

[5] = Caco-2, efflux ratio (RB→A/A→B)
[6] = Caco-2, Papp × 10^−4 (cm/s) (A→B)
[7] = Caco-2, Papp × 10^−4 (cm/s) (B→A)
[8] = Caco-2, pH 5, Papp × 10^−4 (cm/s) (A→B)
[9] = Caco-2, pH 5, Papp × 10^−4 (cm/s) (B→A)
[10] = Caco-2, pH 6, Papp × 10^−4 (cm/s) (A→B)
[11] = Caco-2, pH 6, Papp × 10^−4 (cm/s) (B→A)
[12] = Caco-2, pH 8, Papp × 10^−4 (cm/s) (A→B)
[13] = Caco-2, pH 8, Papp × 10^−4 (cm/s) (B→A)
[14] = Caco-2, pH 9, Papp × 10^−4 (cm/s) (A→B)
[15] = Caco-2, pH 9, Papp × 10^−4 (cm/s) (B→A)

C[C@@H]1CC[C@]2(C(=O)O)CC[C@]3(C)C(=CC[C@@H]4[C@@]5(C)C[C@@H](O)[C@@H](O)C(C)(C)[C@@H]5CC[C@]43C)[C@@H]2[C@]1(C)O [Euscaphic acid]
P-gp substrate status [1]: substrates of P-gp
absorption category from Papp [1]: good absorption
transport mechanism [1]: passive diffusion
transport of euscaphic acid over time (Fig. 5M-O) ([1]; human, Caco-2, 15 min, 50 μg/mL, pH 9): 0.08
absorption amount (Qr) ([1]; human, Caco-2, 120 min, 50 μg/mL): 4.56
transport of euscaphic acid over time (Fig. 5M-O) ([1]; human, Caco-2, 150 min, 50 µg/mL, pH 9): 0.45
Papp ([1]; human): greater than 10^−6
RB→A/A→B ratios, range over all conditions ([1]; human): 0.72-1.58
RB→A/A→B ([1]; human, 100 μg/mL, pH 5): 1.16 ± 0.03
RB→A/A→B ([1]; human, 100 μg/mL, pH 8): 0.95 ± 0.02
RB→A/A→B ([1]; human, 100 μg/mL, pH 9): 1.16 ± 0.04
RB→A/A→B ([1]; human, 150 μg/mL, pH 9): 1.14 ± 0.01
efflux ratio at 180 min, 50 μg/mL [2]: 0.72 ± 0.01
efflux ratio at 180 min, 100 μg/mL [2]: 0.78 ± 0.06
efflux ratio at 180 min, 150 μg/mL [2]: 1.58 ± 0.01
Papp at 180 min [3]: 0.754 to 26.9 ×10⁻⁶ cm/s
efflux ratio at 180 min, 50 μg/mL ([3]; Caco-2, RB→A/A→B): 0.88 ± 0.01
efflux ratio at 180 min, 100 μg/mL ([3]; Caco-2, RB→A/A→B): 0.86 ± 0.01
efflux ratio at 180 min, 150 μg/mL ([3]; Caco-2, RB→A/A→B): 1.38 ± 0.21
efflux ratio at 180 min [3, 5]: < 1.5
efflux ratio at 180 min, 50 μg/mL ([3]; Caco-2, pH 5, RB→A/A→B): 1.16 ± 0.08
efflux ratio at 180 min, 150 μg/mL ([3]; Caco-2, pH 5, RB→A/A→B): 0.97 ± 0.06
efflux ratio at 180 min, 50 μg/mL ([3]; Caco-2, pH 6, RB→A/A→B): 0.95 ± 0.05
efflux ratio at 180 min, 100 μg/mL ([3]; Caco-2, pH 6, RB→A/A→B): 1.19 ± 0.02
efflux ratio at 180 min, 150 μg/mL ([3]; Caco-2, pH 6, RB→A/A→B): 1.03 ± 0.09
efflux ratio at 180 min ([3]; Caco-2, pH 6, RB→A/A→B value): ~1
efflux ratio at 180 min, 50 μg/mL ([3]; Caco-2, pH 8, RB→A/A→B): 1.12 ± 0.03
efflux ratio at 180 min, 150 μg/mL ([3]; Caco-2, pH 8, RB→A/A→B): 0.91 ± 0.05
efflux ratio at 180 min, 50 μg/mL ([3]; Caco-2, pH 9, RB→A/A→B): 1.08 ± 0.03

O=C([O-])c1ccccc1-c1c2ccc(=O)cc-2oc2cc([O-])ccc12.[Na+].[Na+] [fluorescein sodium, Fluorescein sodium]
Papp of fluorescein sodium [4]: 4.06 ± 0.17 × 10^−7 cm/s

O=C(/C=C/c1ccc(O)cc1)OC[C@H]1O[C@@H](Oc2c(-c3ccc(O)cc3)oc3cc(O)cc(O)c3c2=O)[C@H](O)[C@@H](O)[C@@H]1O [Tiliroside]
P-gp substrate status [1]: substrates of P-gp
absorption category from Papp [1]: good absorption
transport mechanism [1]: passive diffusion
Papp ([1]; human): greater than 10^−6
RB→A/A→B ratios, range over all conditions ([1]; human): 0.75-1.31
RB→A/A→B ([1]; human, 100 μg/mL, pH 6): 1.31 ± 0.05
RB→A/A→B ([1]; human, 100 μg/mL, pH 9): 1.03 ± 0.04
RB→A/A→B ([1]; human, 150 μg/mL, pH 6): 1.21 ± 0.15
RB→A/A→B ([1]; human, 150 μg/mL, pH 8): 1.03 ± 0.05
RB→A/A→B ([1]; human, 150 μg/mL, pH 9): 1.06 ± 0.05
Papp A→B at 180 min, 50 μg/mL [2, 6]: 142 ± 2 ×10⁻⁶ cm/s
Papp A→B at 180 min, 100 μg/mL [2, 6]: 180 ± 5 ×10⁻⁶ cm/s
Papp A→B at 180 min, 150 μg/mL [2, 6]: 261 ± 6 ×10⁻⁶ cm/s
Papp B→A at 180 min, 50 μg/mL [2, 7]: 156 ± 3 ×10⁻⁶ cm/s
Papp B→A at 180 min, 100 μg/mL [2, 7]: 226 ± 9 ×10⁻⁶ cm/s
Papp B→A at 180 min, 150 μg/mL [2, 7]: 276 ± 1 ×10⁻⁶ cm/s
efflux ratio at 180 min, 50 μg/mL [2]: 1.09 ± 0.03
efflux ratio at 180 min, 100 μg/mL [2]: 1.25 ± 0.06
efflux ratio at 180 min, 150 μg/mL [2]: 0.96 ± 0.02
Papp at 180 min [3]: 0.042 to 0.808 ×10⁻⁶ cm/s
Papp A→B at 180 min, 50 μg/mL [3, 6]: 137 ± 2 ×10⁻⁶ cm/s
Papp A→B at 180 min, 100 μg/mL [3, 6]: 176 ± 13 ×10⁻⁶ cm/s
Papp A→B at 180 min, 150 μg/mL [3, 6]: 268 ± 9 ×10⁻⁶ cm/s
Papp B→A at 180 min, 50 μg/mL [3, 7]: 129 ± 2 ×10⁻⁶ cm/s
Papp B→A at 180 min, 100 μg/mL [3, 7]: 210 ± 4 ×10⁻⁶ cm/s
Papp B→A at 180 min, 150 μg/mL [3, 7]: 283 ± 3 ×10⁻⁶ cm/s
efflux ratio at 180 min, 50 μg/mL ([3]; Caco-2, RB→A/A→B): 0.82 ± 0.04
efflux ratio at 180 min, 100 μg/mL ([3]; Caco-2, RB→A/A→B): 0.75 ± 0.07
efflux ratio at 180 min [3, 5]: < 1.5
Papp A→B at 180 min, 50 μg/mL [3, 8]: 380 ± 9 ×10⁻⁶ cm/s
Papp A→B at 180 min, 100 μg/mL [3, 8]: 409 ± 7 ×10⁻⁶ cm/s
Papp A→B at 180 min, 150 μg/mL [3, 8]: 649 ± 8 ×10⁻⁶ cm/s
Papp B→A at 180 min, 50 μg/mL [3, 9]: 448 ± 8 ×10⁻⁶ cm/s
Papp B→A at 180 min, 100 μg/mL [3, 9]: 536 ± 14 ×10⁻⁶ cm/s
Papp B→A at 180 min, 150 μg/mL [3, 9]: 718 ± 24 ×10⁻⁶ cm/s
efflux ratio at 180 min, 50 μg/mL ([3]; Caco-2, pH 5, RB→A/A→B): 1.18 ± 0.01
efflux ratio at 180 min, 100 μg/mL ([3]; Caco-2, pH 5, RB→A/A→B): 1.31 ± 0.02
efflux ratio at 180 min, 150 μg/mL ([3]; Caco-2, pH 5, RB→A/A→B): 1.11 ± 0.05
Papp A→B at 180 min, 50 μg/mL [3, 10]: 473 ± 24 ×10⁻⁶ cm/s
Papp A→B at 180 min, 100 μg/mL [3, 10]: 468 ± 14 ×10⁻⁶ cm/s
Papp A→B at 180 min, 150 μg/mL [3, 10]: 618 ± 28 ×10⁻⁶ cm/s
Papp B→A at 180 min, 50 μg/mL [3, 11]: 568 ± 24 ×10⁻⁶ cm/s
Papp B→A at 180 min, 100 μg/mL [3, 11]: 614 ± 8 ×10⁻⁶ cm/s
Papp B→A at 180 min, 150 μg/mL [3, 11]: 808 ± 15 ×10⁻⁶ cm/s
efflux ratio at 180 min, 50 μg/mL ([3]; Caco-2, pH 6, RB→A/A→B): 1.2 ± 0.11
efflux ratio at 180 min ([3]; Caco-2, pH 6, RB→A/A→B value): ~1
Papp A→B at 180 min, 50 μg/mL [3, 12]: 86 ± 12 ×10⁻⁶ cm/s
Papp A→B at 180 min, 100 μg/mL [3, 12]: 92 ± 17 ×10⁻⁶ cm/s
Papp A→B at 180 min, 150 μg/mL [3, 12]: 96 ± 14 ×10⁻⁶ cm/s
Papp B→A at 180 min, 50 μg/mL [3, 13]: 83 ± 600 ×10⁻⁶ cm/s
Papp B→A at 180 min, 100 μg/mL [3, 13]: 88 ± 11 ×10⁻⁶ cm/s
Papp B→A at 180 min, 150 μg/mL [3, 13]: 93 ± 18 ×10⁻⁶ cm/s
efflux ratio at 180 min, 50 μg/mL ([3]; Caco-2, pH 8, RB→A/A→B): 1.03 ± 0.01
efflux ratio at 180 min, 100 μg/mL ([3]; Caco-2, pH 8, RB→A/A→B): 1.04 ± 0.03
Papp A→B at 180 min, 50 μg/mL [3, 14]: 45 ± 4 ×10⁻⁶ cm/s
Papp A→B at 180 min, 100 μg/mL [3, 14]: 56 ± 24 ×10⁻⁶ cm/s
Papp A→B at 180 min, 150 μg/mL [3, 14]: 66 ± 26 ×10⁻⁶ cm/s
Papp B→A at 180 min, 50 μg/mL [3, 15]: 42 ± 15 ×10⁻⁶ cm/s
Papp B→A at 180 min, 100 μg/mL [3, 15]: 54 ± 18 ×10⁻⁶ cm/s
Papp B→A at 180 min, 150 μg/mL [3, 15]: 62 ± 21 ×10⁻⁶ cm/s
efflux ratio at 180 min, 50 μg/mL ([3]; Caco-2, pH 9, RB→A/A→B): 1.07 ± 0.06
